Test results from ChEMBL document CHEMBL5036349, “Development of potent dual PDK1/AurA kinase inhibitors for cancer therapy: Lead-optimization, structural insights, and ADME-Tox profile” (Eur J Med Chem, 2021).
One block for each compound: values may come before it.

Assays:
Aurora kinase A = molecular target: T1, Aurora kinase A (Homo sapiens, UniProt O14965); assay: Inhibition of recombinant full length human His-tagged AURA expressed in Baculovirus expression system in presence of ATP measured by […]
T1 sequence (O14965 whole entry): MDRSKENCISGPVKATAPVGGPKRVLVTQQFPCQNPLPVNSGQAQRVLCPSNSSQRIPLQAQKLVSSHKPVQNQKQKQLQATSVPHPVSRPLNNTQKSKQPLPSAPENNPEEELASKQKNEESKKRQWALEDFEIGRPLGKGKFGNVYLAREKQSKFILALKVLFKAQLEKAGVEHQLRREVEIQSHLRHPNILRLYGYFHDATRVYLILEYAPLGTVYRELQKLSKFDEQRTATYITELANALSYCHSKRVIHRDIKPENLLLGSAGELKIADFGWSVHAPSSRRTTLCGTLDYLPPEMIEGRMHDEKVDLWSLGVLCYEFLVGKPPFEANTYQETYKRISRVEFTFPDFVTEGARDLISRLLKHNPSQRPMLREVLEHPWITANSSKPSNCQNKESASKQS

[1] = molecular target: 3-phosphoinositide-dependent protein kinase 1 (Homo sapiens) (UniProt O15530); assay: Inhibition of recombinant full length human His-tagged PDK1 expressed in Baculovirus expression system in presence of ATP measured by […]
[2] = molecular target: T2, NAD-dependent protein deacetylase sirtuin-7 (Homo sapiens) (UniProt Q9NRC8); assay: Inhibition of human recombinant SIRT7 at 10 uM incubated for 20 mins followed by mixing and measure after 30 mins by Luminescence assay relative to control; conditions: time 50.0 min
T2 sequence (whole entry): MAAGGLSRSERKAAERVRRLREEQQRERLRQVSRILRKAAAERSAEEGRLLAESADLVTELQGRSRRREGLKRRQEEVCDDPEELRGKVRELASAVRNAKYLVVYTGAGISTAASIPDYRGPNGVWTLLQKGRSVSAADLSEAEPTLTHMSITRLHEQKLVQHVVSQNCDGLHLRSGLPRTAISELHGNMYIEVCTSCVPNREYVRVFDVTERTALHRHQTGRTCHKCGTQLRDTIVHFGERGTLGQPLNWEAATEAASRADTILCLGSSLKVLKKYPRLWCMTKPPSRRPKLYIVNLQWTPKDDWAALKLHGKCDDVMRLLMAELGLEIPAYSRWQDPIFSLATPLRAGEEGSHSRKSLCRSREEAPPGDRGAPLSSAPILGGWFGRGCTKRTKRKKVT

[3] = molecular target: 3',5'-cyclic-AMP phosphodiesterase 4C (Homo sapiens) (UniProt Q08493); assay: Inhibition of PDE4C1 (unknown origin) at 10 uM incubated for 60 mins followed by addition of binding agent and measured after 20 mins by Fluorescence Polarization assay relative to control; conditions: time 80.0 min
Chain of 3',5'-cyclic-AMP phosphodiesterase 4C (Homo sapiens) (Q08493 whole entry): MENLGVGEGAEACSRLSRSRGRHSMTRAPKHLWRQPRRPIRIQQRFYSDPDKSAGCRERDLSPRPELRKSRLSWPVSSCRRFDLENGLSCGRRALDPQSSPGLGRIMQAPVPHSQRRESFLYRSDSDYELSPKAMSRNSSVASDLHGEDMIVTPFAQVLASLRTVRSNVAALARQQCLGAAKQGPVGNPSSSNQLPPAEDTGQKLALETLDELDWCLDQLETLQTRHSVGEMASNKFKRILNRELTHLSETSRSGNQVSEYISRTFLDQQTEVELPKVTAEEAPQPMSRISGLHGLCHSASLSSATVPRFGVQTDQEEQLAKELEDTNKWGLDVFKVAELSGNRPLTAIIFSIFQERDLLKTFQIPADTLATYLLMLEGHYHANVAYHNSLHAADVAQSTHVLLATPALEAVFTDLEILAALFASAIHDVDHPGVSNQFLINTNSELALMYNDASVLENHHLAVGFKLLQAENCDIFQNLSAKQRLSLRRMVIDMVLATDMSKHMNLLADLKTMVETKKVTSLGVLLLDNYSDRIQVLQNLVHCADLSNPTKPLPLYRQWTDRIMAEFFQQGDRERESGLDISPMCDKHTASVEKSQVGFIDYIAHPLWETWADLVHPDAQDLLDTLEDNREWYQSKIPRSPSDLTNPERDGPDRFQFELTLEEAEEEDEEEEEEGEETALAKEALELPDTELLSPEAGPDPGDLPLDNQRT

[4] = molecular target: Histone deacetylase 4 (Homo sapiens) (UniProt P56524); assay: Inhibition on human recombinant HDAC4 at 10 uM measured after 20 min by luminescence glo assay
Chain of Histone deacetylase 4 (Homo sapiens) (P56524 whole entry): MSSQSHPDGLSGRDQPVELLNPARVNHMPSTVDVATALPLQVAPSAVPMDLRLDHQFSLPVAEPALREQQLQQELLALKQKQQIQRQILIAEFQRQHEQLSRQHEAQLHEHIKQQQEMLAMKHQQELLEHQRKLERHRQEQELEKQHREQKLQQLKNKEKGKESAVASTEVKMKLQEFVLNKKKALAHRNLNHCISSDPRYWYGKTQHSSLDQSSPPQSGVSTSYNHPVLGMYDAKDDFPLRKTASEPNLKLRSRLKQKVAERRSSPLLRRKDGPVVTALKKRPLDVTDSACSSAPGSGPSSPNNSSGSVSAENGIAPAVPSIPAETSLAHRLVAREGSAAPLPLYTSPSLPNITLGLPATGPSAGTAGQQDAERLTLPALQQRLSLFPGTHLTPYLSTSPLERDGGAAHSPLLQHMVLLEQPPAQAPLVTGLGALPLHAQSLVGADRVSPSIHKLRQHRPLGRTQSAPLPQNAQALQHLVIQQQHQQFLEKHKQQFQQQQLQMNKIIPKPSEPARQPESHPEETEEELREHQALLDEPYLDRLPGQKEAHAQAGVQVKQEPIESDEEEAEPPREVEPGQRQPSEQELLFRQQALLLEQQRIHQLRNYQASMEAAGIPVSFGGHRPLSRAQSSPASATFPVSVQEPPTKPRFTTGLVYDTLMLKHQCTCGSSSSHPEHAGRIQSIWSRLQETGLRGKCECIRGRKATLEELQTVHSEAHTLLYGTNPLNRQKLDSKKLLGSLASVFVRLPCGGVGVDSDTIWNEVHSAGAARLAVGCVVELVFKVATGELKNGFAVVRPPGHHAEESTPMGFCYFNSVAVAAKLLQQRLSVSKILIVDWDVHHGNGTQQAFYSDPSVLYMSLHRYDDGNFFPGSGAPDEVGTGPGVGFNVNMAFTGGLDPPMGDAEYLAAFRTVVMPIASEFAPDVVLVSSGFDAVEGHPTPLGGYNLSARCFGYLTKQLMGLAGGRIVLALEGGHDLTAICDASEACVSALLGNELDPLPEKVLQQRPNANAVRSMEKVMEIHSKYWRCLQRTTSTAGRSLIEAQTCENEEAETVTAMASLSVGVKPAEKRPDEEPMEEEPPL

HEK293 = assay: Cytotoxicity against HEK293 cells at 10 uM measured after 24 to 48 hrs by Cell-titer glo assay relative to control; format: cell-based; conditions: human, hek293, 10 µM, time 24-48 hrs
[5] = molecular target: Histone deacetylase 9 (Homo sapiens) (UniProt Q9UKV0); assay: Inhibition on human recombinant HDAC9 at 10 uM measured after 20 min by luminescence glo assay
Chain of Histone deacetylase 9 (Homo sapiens) (Q9UKV0 whole entry): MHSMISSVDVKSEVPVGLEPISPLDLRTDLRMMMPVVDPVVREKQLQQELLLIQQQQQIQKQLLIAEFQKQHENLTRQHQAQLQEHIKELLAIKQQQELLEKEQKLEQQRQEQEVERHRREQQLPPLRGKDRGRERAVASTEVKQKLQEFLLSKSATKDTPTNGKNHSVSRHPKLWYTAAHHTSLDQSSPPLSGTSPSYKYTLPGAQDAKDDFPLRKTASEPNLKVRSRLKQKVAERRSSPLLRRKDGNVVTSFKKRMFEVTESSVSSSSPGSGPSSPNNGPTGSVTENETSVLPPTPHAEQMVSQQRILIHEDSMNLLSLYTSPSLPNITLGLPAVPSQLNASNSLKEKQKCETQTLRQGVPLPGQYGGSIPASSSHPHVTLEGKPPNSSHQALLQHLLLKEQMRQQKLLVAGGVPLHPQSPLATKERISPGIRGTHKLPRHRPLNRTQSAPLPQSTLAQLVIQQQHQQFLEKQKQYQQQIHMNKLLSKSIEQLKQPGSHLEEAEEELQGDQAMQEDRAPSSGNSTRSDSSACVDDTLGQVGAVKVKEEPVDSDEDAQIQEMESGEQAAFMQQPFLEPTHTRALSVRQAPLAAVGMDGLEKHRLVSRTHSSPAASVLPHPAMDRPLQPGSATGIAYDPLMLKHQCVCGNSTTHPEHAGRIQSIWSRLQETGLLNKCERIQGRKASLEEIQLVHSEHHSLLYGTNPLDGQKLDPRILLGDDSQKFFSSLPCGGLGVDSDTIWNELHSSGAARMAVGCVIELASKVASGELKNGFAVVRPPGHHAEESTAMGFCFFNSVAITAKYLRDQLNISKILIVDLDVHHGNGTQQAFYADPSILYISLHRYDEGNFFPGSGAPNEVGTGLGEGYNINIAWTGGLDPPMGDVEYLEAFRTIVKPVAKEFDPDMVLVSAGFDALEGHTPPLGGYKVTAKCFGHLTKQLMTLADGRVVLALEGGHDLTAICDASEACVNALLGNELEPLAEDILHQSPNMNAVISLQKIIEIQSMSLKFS

[6] = molecular target: T3, Histone deacetylase 8 (Homo sapiens) (UniProt Q9BY41); assay: Inhibition on human recombinant HDAC8 at 10 uM measured after 20 min by luminescence glo assay
T3 sequence (whole entry): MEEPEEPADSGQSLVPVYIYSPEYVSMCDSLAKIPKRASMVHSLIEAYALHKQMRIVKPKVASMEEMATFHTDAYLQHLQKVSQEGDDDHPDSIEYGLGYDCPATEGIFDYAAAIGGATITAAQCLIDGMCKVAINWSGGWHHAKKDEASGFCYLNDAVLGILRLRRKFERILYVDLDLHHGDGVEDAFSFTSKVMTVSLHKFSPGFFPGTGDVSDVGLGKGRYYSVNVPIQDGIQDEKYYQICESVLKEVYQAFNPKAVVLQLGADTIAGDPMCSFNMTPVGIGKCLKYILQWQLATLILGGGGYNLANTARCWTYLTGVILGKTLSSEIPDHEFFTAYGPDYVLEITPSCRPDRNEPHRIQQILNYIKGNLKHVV

[7] = molecular target: Aurora kinase B (Homo sapiens) (UniProt Q96GD4); assay: Inhibition of Aurora B kinase (unknown origin) at 10 uM in presence of ATP incubated for 30 min followed by addition of kinase glo-reagent measured after 20 mins by Luminescence based plate reader assay relative to control; conditions: time 50.0 min
Chain of Aurora kinase B (Homo sapiens) (Q96GD4 whole entry): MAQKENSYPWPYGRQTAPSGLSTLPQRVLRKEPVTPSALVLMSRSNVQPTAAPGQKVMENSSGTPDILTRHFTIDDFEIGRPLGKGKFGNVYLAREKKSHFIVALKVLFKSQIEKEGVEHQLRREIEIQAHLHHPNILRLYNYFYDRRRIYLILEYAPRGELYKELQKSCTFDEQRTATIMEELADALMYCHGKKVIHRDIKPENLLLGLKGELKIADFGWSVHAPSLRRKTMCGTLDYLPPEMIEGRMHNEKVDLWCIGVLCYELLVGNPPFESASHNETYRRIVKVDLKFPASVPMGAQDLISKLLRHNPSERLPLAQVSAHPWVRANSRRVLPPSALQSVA

[8] = Cytotoxicity against hTERT cells at 10 uM measured after 24 to 48 hrs by Cell-titer glo assay relative to control; format: cell-based; conditions: human, time 24-48 hrs
[9] = molecular target: T4, Protein deacetylase HDAC6 (Homo sapiens) (UniProt Q9UBN7); assay: Inhibition on human recombinant HDAC6 at 10 uM measured after 20 min by luminescence glo assay
T4 sequence (whole entry): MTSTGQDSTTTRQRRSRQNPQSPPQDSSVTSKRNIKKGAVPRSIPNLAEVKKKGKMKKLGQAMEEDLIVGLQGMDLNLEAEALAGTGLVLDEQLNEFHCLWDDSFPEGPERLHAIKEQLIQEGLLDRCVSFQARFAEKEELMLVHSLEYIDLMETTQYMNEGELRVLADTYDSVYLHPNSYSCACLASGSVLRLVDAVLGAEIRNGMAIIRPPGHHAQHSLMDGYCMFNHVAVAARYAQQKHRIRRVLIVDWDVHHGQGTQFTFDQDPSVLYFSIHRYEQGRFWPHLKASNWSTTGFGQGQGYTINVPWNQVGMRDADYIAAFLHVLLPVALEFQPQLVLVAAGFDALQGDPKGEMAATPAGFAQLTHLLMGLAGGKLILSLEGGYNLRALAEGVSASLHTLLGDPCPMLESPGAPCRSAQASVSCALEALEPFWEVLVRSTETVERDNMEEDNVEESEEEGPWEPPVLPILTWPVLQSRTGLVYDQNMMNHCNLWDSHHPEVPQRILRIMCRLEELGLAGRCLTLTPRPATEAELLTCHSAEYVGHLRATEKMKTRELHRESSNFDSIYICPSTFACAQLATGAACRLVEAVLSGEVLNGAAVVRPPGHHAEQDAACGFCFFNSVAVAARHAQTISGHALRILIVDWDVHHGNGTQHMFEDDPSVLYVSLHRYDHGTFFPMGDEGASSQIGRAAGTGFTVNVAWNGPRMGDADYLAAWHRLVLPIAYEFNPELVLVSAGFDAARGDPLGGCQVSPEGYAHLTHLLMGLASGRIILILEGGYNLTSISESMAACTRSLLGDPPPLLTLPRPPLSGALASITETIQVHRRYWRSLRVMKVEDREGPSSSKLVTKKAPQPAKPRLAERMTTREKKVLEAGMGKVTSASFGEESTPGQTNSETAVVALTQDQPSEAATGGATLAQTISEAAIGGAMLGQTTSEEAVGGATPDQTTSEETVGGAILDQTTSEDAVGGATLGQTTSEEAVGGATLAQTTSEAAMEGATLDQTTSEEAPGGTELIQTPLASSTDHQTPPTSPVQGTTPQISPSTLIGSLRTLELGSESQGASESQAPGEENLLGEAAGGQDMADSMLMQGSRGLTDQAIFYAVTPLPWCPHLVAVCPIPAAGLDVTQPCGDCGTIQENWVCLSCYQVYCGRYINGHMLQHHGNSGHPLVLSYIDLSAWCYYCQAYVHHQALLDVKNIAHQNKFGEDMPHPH

PC-3 = assay: Cytotoxicity against human PC-3 cells measured after 72 hrs by MTT assay; format: functional, cell-based; conditions: PC-3, 72 h
TC-32 [10] = assay: Cytotoxicity against human TC-32 cells at 30 uM assessed as cell proliferation rate measured after 72 hrs by MTT assay relative to control; format: functional
SK-N-MC = assay: Cytotoxicity against human SK-N-MC cells measured after 72 hrs by MTT assay; format: functional, cell-based
TC-32 [11] = assay: Cytotoxicity against human TC-32 cells measured after 72 hrs by MTT assay; format: functional, cell-based; conditions: TC-32, 72 h
IGROV-1 = assay: Cytotoxicity against human IGROV-1 cells measured after 72 hrs by MTT assay; format: functional, cell-based; conditions: IGROV-1, 72 h
[12] = Cytotoxicity against human TC71 cells measured after 72 hrs by MTT assay; format: functional, cell-based; conditions: TC-71, 72 h
Rec1 = assay: Cytotoxicity against human REC1 cells measured after 72 hrs by MTT assay; format: functional, cell-based; conditions: Rec1, 72 h
HCT-116 = assay: Cytotoxicity against human HCT-116 cells measured after 72 hrs by MTT assay; format: functional, cell-based; conditions: HCT-116, 72 h
MCF7 = assay: Cytotoxicity against human MCF7 cells measured after 72 hrs by MTT assay; format: functional, cell-based; conditions: MCF7, 72 h
NCI-H69 [13] = assay: Cytotoxicity against human NCI-H69 cells measured after 72 hrs by MTT assay; format: functional, cell-based; conditions: NCI-H69, 72 h
[14] = Cytotoxicity against human 6647 cells measured after 72 hrs by MTT assay; format: functional, cell-based; conditions: Homo sapiens, 6647, 72 h
NCI-H82 = assay: Cytotoxicity against human NCI-H82 cells measured after 72 hrs by MTT assay; format: functional, cell-based; conditions: NCI-H82, 72 h
786-0 = assay: Cytotoxicity against human 786-0 cells measured after 72 hrs by MTT assay; format: functional, cell-based; conditions: 786-0, 72 h
A673 = assay: Cytotoxicity against human A673 cells measured after 72 hrs by MTT assay; format: functional, cell-based; conditions: A673, 72 h
NCI-H69 [15] = assay: Cytotoxicity against human NCI-H69 cells at 30 uM assessed as cell proliferation rate measured after 72 hrs by MTT assay relative to control; format: functional
CAKI-1 = assay: Cytotoxicity against human CAKI-1 cells measured after 72 hrs by MTT assay; format: functional, cell-based; conditions: CAKI-1, 72 h
[16] = molecular target: {'v': 'hERG (KCNH2)', 'o': 'p', 'q': 'Inhibition of human ERG at 10 uM'} (Homo sapiens, UniProt Q12809); assay: Inhibition of human ERG at 10 uM relative to control
Chain of {'v': 'hERG (KCNH2)', 'o': 'p', 'q': 'Inhibition of human ERG at 10 uM'} (Q12809 whole entry): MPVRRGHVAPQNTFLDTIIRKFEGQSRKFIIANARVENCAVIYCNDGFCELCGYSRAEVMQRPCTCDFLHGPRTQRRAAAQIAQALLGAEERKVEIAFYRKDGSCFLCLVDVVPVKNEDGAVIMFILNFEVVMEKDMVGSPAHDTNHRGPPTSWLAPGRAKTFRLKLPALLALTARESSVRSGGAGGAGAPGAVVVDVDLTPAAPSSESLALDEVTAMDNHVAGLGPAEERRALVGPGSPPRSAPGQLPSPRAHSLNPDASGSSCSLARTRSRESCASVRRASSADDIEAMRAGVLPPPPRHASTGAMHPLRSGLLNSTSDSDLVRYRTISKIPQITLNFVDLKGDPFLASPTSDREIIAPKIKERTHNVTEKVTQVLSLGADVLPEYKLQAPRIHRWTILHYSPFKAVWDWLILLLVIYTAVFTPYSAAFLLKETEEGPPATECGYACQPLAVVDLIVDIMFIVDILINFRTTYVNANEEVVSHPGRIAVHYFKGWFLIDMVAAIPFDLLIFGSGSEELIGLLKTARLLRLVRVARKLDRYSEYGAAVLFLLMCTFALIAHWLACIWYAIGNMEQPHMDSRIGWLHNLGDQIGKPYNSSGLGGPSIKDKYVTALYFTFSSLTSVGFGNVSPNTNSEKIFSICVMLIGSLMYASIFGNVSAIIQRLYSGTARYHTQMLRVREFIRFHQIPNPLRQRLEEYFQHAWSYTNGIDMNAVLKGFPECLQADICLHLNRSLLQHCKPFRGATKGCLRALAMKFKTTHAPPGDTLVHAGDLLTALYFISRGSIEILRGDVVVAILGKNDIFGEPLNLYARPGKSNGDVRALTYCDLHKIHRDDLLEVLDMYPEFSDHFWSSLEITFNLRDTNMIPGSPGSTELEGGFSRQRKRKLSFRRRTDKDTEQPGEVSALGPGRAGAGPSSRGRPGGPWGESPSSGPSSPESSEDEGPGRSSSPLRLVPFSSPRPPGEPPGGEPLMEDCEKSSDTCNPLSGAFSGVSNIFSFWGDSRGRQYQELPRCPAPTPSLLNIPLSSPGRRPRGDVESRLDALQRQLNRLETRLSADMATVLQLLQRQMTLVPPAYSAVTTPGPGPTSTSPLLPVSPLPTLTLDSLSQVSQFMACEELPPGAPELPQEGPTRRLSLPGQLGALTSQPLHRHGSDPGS

Compound: O=C(CCNC(=O)c1cccn(Cc2ccc(F)c(F)c2)c1=O)Nc1ccc2c(c1)/C(=C/c1ncc[nH]1)C(=O)N2
IC50 (Aurora kinase A): Not Active

Compound: CCN(C)CC(=O)c1c[nH]c2ccc(NC(=O)[C@H](NC(=O)c3cccn(Cc4ccc(F)c(F)c4)c3=O)c3ccccc3)cc12
IC50 (Aurora kinase A): Not Active | IC50 [1]: Not Active

Compound: CN1CCN(CC(=O)c2c[nH]c3ccc(NC(=O)[C@H](NC(=O)c4cccn(Cc5ccc(F)c(F)c5)c4=O)c4ccccc4)cc23)CC1
IC50 (Aurora kinase A): Not Active | IC50 [1]: Not Active

Compound: Cc1c(Br)cc(C(=O)NCC(=O)Nc2ccc3c(c2)/C(=C/c2cnc[nH]2)C(=O)N3)c(=O)n1Cc1ccc(F)c(F)c1
inhibition [2]: < 30% | inhibition [3]: < 30% | inhibition [4]: < 30% | Activity (HEK293): < 25% | inhibition [5]: < 30% | inhibition [6]: < 30% | inhibition [7]: < 20% | Activity [8]: < 25% | IC50 (Aurora kinase A; read-out: IC50): > 10 µM | inhibition [9]: < 30%

Compound: O=C(N[C@@H](COc1ccc2[nH]c(=O)[nH]c2c1)c1ccccc1)c1cccn(Cc2ccc(F)c(F)c2)c1=O
IC50 (PC-3): > 30 µM | Emax at 30 µM (TC-32 [10]): 80% | IC50 (SK-N-MC): > 30 µM | IC50 (TC-32 [11]): 13.9 µM | IC50 (IGROV-1): > 30 µM | IC50 [12]: > 30 µM | IC50 (Rec1): > 30 µM | IC50 (HCT-116): > 30 µM | IC50 (MCF7): > 30 µM | IC50 (NCI-H69 [13]): 13.9 µM | IC50 [14]: > 30 µM | IC50 (NCI-H82): > 30 µM | IC50 (786-0): > 30 µM | IC50 (A673): > 30 µM | Emax at 30 µM (NCI-H69 [15]): 80% | IC50 (CAKI-1): > 30 µM

Compound: O=C(CCNC(=O)c1cccn(Cc2ccc(F)c(F)c2)c1=O)Nc1ccc2c(c1)C(=Cc1cccs1)C(=O)N2
IC50 (Aurora kinase A): Not Active

Compound: O=C(CCCNC(=O)c1cccn(Cc2ccc(F)c(F)c2)c1=O)Nc1ccc2c(c1)/C(=C/c1cnc[nH]1)C(=O)N2
inhibition [2]: < 30% | inhibition [3]: < 30% | inhibition [4]: < 30% | Activity (HEK293): < 25% | inhibition [5]: < 30% | inhibition [6]: < 30% | inhibition [7]: < 20% | Activity [8]: < 25% | inhibition [9]: < 30% | inhibition at 10 µM [16]: 53%

Second part, led by results:

IC50 (Aurora kinase A): Not Active | IC50 [1]: Not Active
Compound: O=C(CCNC(=O)c1cccn(Cc2ccc(F)c(F)c2)c1=O)Nc1ccc2c(c1)/C(=C\c1ccc(F)cc1)C(=O)N2

IC50 (Aurora kinase A): Not Active
Compound: O=C(CCCNC(=O)c1cccn(Cc2ccc(F)c(F)c2)c1=O)Nc1ccc2c(c1)C(=Cc1cccs1)C(=O)N2

IC50 (Aurora kinase A): Not Active | IC50 [1]: Not Active
Compound: O=C1Nc2ccc(NC(=O)c3cccc(NC(=O)c4cccn(Cc5ccc(F)c(F)c5)c4=O)c3)cc2C1=Cc1cccs1

inhibition [2]: < 30% | inhibition [3]: < 30% | inhibition [4]: < 30% | inhibition [5]: < 30% | inhibition [6]: < 30% | inhibition [7]: < 20% | IC50 (Aurora kinase A; read-out: IC50): > 10 µM | inhibition [9]: < 30%
Compound: O=C1Nc2ccc(NC(=O)c3cccc(NC(=O)c4cccn(Cc5ccc(F)c(F)c5)c4=O)c3)cc2/C1=C/c1cnc[nH]1
Activity (HEK293): < 25% | Activity [8]: < 25%
